Results taken from paper doi:10.1101/2020.07.01.182642v1 (biorxiv, 2020).

Columns and labels:
Details in all cases: binder
SGK3 = SGK3 (Homo sapiens, UniProt Q96BR1)
PBK = PBK (Homo sapiens, UniProt Q96KB5)
CDKL3 = CDKL3 (Homo sapiens, UniProt Q8IVW4)
CAMKK1 = CAMKK1 (Homo sapiens, UniProt Q8N5S9)
STK32B = STK32B (Homo sapiens, UniProt Q9NY57)
MAPK7 = MAPK7 (Homo sapiens, UniProt Q13164)
PRKD2 = PRKD2 (Homo sapiens, UniProt Q9BZL6)
NEK6 = NEK6 (Homo sapiens, UniProt Q9HC98)
PAK1 = PAK1 (Homo sapiens, UniProt Q13153)
FGR = FGR (Homo sapiens, UniProt P09769)
RIPK3 = RIPK3 (Homo sapiens, UniProt Q9Y572)
VRK3 = VRK3 (Homo sapiens, UniProt Q8IV63)
NLK = NLK (Homo sapiens, UniProt Q9UBE8)
NEK9 = NEK9 (Homo sapiens, UniProt Q8TD19)
TLK1 = TLK1 (Homo sapiens, UniProt Q9UKI8)
CAMK4 = CAMK4 (Homo sapiens, UniProt Q16566)
PAK2 = PAK2 (Homo sapiens, UniProt Q13177)
ADRBK2 = ADRBK2 (Homo sapiens, UniProt P35626)
STK32C = STK32C (Homo sapiens, UniProt Q86UX6)
PTK6 = PTK6 (Homo sapiens, UniProt Q13882)
DYRK1A = DYRK1A (Homo sapiens, UniProt Q13627)
CSNK1E = CSNK1E (Homo sapiens, UniProt P49674)
OXSR1 = OXSR1 (Homo sapiens, UniProt O95747)
RIPK2 = RIPK2 (Homo sapiens, UniProt O43353)
CLK4 = CLK4 (Homo sapiens, UniProt Q9HAZ1)
IGF1R = IGF1R (Homo sapiens, UniProt P08069)
MYO3A = MYO3A (Homo sapiens, UniProt Q8NEV4)
LIMK1 = LIMK1 (Homo sapiens, UniProt P53667)
FGFR4 = FGFR4 (Homo sapiens, UniProt P22455)
SgK223 = SgK223 (Homo sapiens, UniProt Q86YV5)
ERN2 = ERN2 (Homo sapiens, UniProt Q76MJ5)
Chain of ERN2 (Q76MJ5 whole entry): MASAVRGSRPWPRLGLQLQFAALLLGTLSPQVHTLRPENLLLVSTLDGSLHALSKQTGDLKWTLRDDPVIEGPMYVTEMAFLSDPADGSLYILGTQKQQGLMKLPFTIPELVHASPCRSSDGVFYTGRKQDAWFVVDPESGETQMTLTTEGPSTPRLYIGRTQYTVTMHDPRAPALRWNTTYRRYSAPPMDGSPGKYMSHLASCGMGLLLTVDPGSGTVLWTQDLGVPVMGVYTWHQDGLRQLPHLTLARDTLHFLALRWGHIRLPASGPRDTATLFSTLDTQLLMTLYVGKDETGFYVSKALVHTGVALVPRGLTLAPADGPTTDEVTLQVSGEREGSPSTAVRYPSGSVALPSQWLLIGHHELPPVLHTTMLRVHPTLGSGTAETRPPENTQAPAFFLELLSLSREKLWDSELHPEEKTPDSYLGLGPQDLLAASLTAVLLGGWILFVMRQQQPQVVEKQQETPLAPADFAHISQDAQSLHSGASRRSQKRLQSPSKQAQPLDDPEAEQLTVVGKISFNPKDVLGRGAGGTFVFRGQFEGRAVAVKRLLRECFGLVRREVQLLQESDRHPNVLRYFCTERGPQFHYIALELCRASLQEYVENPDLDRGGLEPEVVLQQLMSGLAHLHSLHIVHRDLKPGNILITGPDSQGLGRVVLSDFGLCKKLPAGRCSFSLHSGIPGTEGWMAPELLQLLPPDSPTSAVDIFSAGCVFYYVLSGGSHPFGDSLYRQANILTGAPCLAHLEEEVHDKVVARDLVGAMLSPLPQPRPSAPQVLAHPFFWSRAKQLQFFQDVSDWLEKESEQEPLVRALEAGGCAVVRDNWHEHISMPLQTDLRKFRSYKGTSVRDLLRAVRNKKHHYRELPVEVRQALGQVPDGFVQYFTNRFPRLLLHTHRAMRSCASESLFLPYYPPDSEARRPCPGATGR

Chain of SGK3 (Q96BR1 whole entry): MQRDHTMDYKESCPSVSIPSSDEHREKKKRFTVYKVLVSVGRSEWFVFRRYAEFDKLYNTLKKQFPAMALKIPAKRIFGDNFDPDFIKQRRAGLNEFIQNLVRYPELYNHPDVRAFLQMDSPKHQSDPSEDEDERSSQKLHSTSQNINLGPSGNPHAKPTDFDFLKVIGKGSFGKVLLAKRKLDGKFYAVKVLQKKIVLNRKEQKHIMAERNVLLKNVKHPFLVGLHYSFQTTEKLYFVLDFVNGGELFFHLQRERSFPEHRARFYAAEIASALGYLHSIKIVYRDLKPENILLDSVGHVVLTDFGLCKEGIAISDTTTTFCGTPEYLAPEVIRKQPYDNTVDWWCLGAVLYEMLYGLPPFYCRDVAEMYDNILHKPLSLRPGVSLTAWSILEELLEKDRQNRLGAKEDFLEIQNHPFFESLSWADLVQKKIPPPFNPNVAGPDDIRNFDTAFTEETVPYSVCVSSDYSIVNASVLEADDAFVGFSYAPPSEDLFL
Chain of IGF1R (P08069 whole entry): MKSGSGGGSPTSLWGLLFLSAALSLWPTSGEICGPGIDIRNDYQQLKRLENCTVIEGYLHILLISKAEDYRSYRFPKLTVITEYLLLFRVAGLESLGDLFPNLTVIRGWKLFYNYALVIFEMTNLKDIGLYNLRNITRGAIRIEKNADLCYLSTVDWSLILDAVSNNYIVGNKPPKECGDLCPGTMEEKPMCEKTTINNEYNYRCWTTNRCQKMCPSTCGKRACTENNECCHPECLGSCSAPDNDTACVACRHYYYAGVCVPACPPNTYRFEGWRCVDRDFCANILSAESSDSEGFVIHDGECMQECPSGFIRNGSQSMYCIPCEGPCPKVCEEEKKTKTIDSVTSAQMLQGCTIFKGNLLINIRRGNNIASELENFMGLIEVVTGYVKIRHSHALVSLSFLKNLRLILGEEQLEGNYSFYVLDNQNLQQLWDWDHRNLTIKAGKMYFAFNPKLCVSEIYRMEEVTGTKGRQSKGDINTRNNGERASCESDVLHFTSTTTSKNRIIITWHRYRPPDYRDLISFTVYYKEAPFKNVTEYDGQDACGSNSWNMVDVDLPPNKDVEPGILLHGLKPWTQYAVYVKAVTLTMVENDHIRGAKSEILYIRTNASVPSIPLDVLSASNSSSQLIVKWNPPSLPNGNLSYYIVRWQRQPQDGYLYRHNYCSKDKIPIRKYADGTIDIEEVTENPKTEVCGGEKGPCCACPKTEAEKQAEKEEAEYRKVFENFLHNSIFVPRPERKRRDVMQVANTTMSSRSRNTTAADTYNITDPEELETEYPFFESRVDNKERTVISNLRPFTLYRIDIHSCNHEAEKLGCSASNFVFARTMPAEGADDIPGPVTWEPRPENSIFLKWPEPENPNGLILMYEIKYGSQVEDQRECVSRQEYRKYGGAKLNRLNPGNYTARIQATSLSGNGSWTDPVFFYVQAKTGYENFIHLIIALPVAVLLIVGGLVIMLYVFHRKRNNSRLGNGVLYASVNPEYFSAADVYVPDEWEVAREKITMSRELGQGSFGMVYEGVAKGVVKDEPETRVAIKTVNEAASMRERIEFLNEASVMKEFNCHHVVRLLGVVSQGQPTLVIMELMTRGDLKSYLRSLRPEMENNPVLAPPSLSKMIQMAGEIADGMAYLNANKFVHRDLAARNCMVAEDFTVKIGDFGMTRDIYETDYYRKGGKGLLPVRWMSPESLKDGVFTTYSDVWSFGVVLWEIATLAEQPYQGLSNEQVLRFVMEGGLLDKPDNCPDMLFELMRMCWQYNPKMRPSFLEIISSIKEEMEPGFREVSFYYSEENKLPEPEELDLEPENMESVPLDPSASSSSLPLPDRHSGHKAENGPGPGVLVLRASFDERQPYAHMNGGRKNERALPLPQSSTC
Chain of MAPK7 (Q13164 whole entry): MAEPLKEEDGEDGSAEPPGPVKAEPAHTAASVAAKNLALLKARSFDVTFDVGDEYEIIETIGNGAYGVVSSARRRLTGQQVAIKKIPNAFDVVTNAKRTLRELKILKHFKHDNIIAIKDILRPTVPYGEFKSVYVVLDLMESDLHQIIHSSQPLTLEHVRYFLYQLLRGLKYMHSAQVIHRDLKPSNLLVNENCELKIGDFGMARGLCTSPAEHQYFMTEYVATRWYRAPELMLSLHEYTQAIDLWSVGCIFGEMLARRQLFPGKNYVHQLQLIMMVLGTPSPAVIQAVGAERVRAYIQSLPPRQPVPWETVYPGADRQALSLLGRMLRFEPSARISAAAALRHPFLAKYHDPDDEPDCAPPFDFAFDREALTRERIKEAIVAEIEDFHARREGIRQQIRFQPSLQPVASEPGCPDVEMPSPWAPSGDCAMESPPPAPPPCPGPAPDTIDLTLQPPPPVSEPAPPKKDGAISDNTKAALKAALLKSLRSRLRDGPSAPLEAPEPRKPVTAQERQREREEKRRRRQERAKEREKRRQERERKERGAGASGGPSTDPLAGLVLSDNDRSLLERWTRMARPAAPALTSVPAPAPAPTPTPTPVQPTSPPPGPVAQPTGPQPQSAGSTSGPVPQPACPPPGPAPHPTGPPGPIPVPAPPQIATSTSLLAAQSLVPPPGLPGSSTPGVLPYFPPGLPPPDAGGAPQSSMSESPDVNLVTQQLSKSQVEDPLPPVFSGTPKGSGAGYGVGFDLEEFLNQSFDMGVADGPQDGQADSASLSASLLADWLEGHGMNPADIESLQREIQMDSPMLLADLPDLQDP
Chain of PBK (Q96KB5 whole entry): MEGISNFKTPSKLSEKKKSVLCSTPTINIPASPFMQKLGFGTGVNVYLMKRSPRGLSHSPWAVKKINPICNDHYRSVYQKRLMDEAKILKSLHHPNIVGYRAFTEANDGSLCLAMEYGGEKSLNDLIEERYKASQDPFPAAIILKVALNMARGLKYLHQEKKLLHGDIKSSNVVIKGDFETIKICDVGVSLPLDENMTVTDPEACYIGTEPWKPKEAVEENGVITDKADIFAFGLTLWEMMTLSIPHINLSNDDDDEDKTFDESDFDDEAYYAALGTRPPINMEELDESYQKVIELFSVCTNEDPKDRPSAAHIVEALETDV
Chain of RIPK3 (Q9Y572 whole entry): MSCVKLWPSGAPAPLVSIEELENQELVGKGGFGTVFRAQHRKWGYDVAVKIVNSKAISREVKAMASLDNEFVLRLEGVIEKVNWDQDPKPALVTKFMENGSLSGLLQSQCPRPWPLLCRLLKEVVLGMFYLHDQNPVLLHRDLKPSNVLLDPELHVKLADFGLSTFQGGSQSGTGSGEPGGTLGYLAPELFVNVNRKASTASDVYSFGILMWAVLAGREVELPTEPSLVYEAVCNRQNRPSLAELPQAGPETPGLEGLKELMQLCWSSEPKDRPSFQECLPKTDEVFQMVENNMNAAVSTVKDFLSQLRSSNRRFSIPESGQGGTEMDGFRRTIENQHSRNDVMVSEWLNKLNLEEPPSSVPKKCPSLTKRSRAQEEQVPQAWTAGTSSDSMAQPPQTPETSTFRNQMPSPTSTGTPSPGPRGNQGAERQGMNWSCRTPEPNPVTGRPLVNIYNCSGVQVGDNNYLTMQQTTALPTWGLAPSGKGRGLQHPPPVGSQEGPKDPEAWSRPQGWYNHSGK
Chain of PAK2 (Q13177 whole entry): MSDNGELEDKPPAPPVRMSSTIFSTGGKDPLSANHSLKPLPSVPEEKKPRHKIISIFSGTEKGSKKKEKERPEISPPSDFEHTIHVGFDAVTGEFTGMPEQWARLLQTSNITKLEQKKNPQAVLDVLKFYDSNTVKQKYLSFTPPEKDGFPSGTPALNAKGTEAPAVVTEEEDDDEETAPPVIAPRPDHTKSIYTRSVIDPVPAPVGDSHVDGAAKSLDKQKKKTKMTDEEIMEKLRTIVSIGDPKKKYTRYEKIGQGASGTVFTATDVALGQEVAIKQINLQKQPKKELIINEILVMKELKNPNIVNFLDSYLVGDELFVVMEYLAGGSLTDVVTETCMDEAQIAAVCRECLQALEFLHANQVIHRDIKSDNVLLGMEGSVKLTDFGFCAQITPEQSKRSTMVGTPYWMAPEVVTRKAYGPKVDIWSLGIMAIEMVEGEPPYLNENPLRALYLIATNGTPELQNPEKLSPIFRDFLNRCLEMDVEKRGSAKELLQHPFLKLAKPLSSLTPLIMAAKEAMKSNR

CCN1/C(=C/C(C)=O)Sc2ccc(OC)cc21 [compound 2, TG003]
ΔTm inhibitor 2 (SGK3): -0.1 °C
ΔTm inhibitor 2 (PBK): 0.5 °C
ΔTm inhibitor 2 (CDKL3): 0.1 °C
ΔTm inhibitor 2 (CAMKK1): 0.0 °C
ΔTm inhibitor 2 (STK32B): -0.2 °C
ΔTm inhibitor 2 (MAPK7): 0.2 °C
ΔTm inhibitor 2 (PRKD2): 0.7 °C
ΔTm inhibitor 2 (NEK6): -1.0 °C
ΔTm inhibitor 2 (PAK1): 0.0 °C
ΔTm inhibitor 2 (FGR): -0.2 °C
ΔTm inhibitor 2 (RIPK3): -0.6 °C
ΔTm inhibitor 2 (VRK3): 0.5 °C
ΔTm inhibitor 2 (NLK): -0.2 °C
ΔTm inhibitor 2 (NEK9): 0.5 °C
ΔTm inhibitor 2 (TLK1): -0.1 °C
ΔTm inhibitor 2 (CAMK4): -0.2 °C
ΔTm inhibitor 2 (PAK2): -0.6 °C
ΔTm inhibitor 2 (ADRBK2): -0.2 °C
ΔTm inhibitor 2 (STK32C): -0.9 °C

CC(=O)c1cccc(-c2cnc3ccc(NCC4CC4)nn23)c1 [compound 1, K00135]
ΔTm inhibitor 1 (PTK6): 0.4 °C
ΔTm inhibitor 1 (DYRK1A): 3.6 °C
ΔTm inhibitor 1 (CSNK1E): 4.4 °C
ΔTm inhibitor 1 (OXSR1): 0.5 °C
ΔTm inhibitor 1 (RIPK2): 6.0 °C
ΔTm inhibitor 1 (CLK4): 8.5 °C

Nc1nccc(-c2ccc3noc(-c4ccc(Cl)cc4)c3c2)n1 [compound 4, K00972]
ΔTm inhibitor 4 (IGF1R): 0.2 °C
ΔTm inhibitor 4 (MYO3A): 0.2 °C
ΔTm inhibitor 4 (LIMK1): 0.5 °C
ΔTm inhibitor 4 (FGFR4): 0.2 °C
ΔTm inhibitor 4 (SgK223): 0.4 °C
ΔTm inhibitor 4 (ERN2): 0.4 °C
